In brackets after ≈: the same amount, converted by molar mass.
Tests used:
[1] = Acute toxicity in Anas platyrhynchos (mallard duck) dosed with diet; details: in vivo, po
[2] = Octanol-water partition coefficient, log Pow of the compound
[3] = Toxicity in female po dosed Mus musculus (mouse); details: in vivo
[4] = Toxicity in male po dosed Mus musculus (mouse); details: in vivo
[5] = Solubility in water at pH 7; details: buffer

CN/C(=N/CC1CCOC1)N[N+](=O)[O-] (stereo not given) [DINOTEFURAN]
LD50 [1]: > 1300 mg/kg
logP [2]: -0.549
LD50 [3]: 2280 mg/kg
LD50 [4]: 2450 mg/kg
solubility [5]: 40 mg/mL (≈ 198 mM)

— ChEMBL document CHEMBL3046816, “Development of a Novel Insecticide, Dinotefuran” (J Pestic Sci, 2005)
